Reference: publication PMC4512978, “Synthesis and evaluation in rats of homologous series of [^18F]-labeled dopamine D2/3 receptor agonists based on the 2-aminomethylchroman scaffold as potential PET tracers” (EJNMMI Research, 2015)

System: D2/3R
Assay: Kinetic analysis of PET data (1TCM, 2TCM, Logan, SRTM);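 on 2TCM BPND change relative to control: Raclopride 1 mg/kg intravenous pretreatment versus saline controls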;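 on SRTM BPND change relative to control: Raclopride 1 mg/kg intravenous pretreatment versus saline controls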
Type: in vivo, Sprague-Dawley rats
Set-up: key to SRTM BPND / 1TCM BPND / 2TCM BPND (VT-based): BPND = VT(target)/VT(cerebellum) − 1 (or SRTM, cerebellum reference); SRTM BPND change relative to control / 1TCM BPND change relative to control / 2TCM BPND change relative to control / Logan BPND change relative to control: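 Raclopride 1 mg/kg intravenous pretreatment versus saline controls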; 1TCM VT / 2TCM VT: unit not given here
Procedure: Kinetic analysis is described using the nomenclature proposed by Innis et al.. ROI TACs of [^18F]FEt-AMC13 were analyzed with one-tissue and two-tissue compartmental models of reversible binding (1TCM and 2TCM, respectively) to obtain individual rate constants. From these, the regional distribution volumes (VT) were calculated and compared to those obtained with Logan graphical analysis. Binding potentials (BPND) were calculated from the distribution ratios as VT (target) / VT (cerebellum) – 1, or estimated with the simplified reference tissue model (SRTM) using the cerebellum as reference region.
Metabolite-corrected plasma-derived arterial input function and whole blood time-activity curve were used for Logan, 1TCM, and 2TCM analyses. Fractional cerebral blood volume was set to 3.6 % [27]. For one rat in the raclopride-treated group, no input curves could be obtained; therefore, its PET data were only analyzed with SRTM.
Degree of D2/3R-specific binding of the tracers was characterized by BPND (as given above) or the specific binding ratio (SBR) given as target region activity/cerebellar activity - 1. Both were calculated under control conditions and in response to the raclopride challenge.

[1] = Cortex, raclopride, listed as [18F]FEt-AMC13
[2] = Hippocampus, raclopride, listed as [18F]FEt-AMC13
[3] = Hypothalamus, control rat A, SD could not be estimated

1TCM VT (Cortex, raclopride): 5.17±0.60
2TCM VT (Cortex, raclopride): 5.45±0.52
Logan VT (Cortex, raclopride): 5.42±0.44
1TCM VT (Hippocampus, control): 6.34±0.71
2TCM VT (Hippocampus, control): 6.62±0.86
Logan VT (Hippocampus, control): 6.49±0.88
1TCM VT (Hippocampus, raclopride): 5.88±0.56
2TCM VT (Hippocampus, raclopride): 6.27±0.63
Logan VT (Hippocampus, raclopride): 6.25±0.56
1TCM VT (Hypothalamus, control): 5.86±0.60
2TCM VT (Hypothalamus, control): 6.20±0.55
Logan VT (Hypothalamus, control): 6.10±0.44
SMILES: Oc1ccc2c(c1)O[C@@H](CNCc1ccc(OCC[18F])cc1)CC2 [[^18F]FEt-AMC13]
2TCM k2 (Cortex, control rat C): 0.19 ± 1.58 min⁻¹
2TCM k3 (Cortex, control rat C): 1.50 ± 19.49 min⁻¹
2TCM k4 (Cortex, control rat C): 1.00 ± 1.64 min⁻¹
1TCM K1 (Cortex, control rat D): 0.47 ± 0.02 mL/g/min
1TCM k2 (Cortex, control rat D): 0.09 ± 0.01 min⁻¹
2TCM K1 (Cortex, control rat D): 1.46 ± 0.45 mL/g/min
2TCM k2 (Cortex, control rat D): 6.65 ± 0.77 min⁻¹
2TCM k3 (Cortex, control rat D): 2.62 ± 1.18 min⁻¹
2TCM k4 (Cortex, control rat D): 0.11 ± 6.33 min⁻¹
1TCM BPND (Cortex, raclopride): 0.17±0.05
1TCM BPND change relative to control (Cortex, raclopride): -9%
2TCM BPND (VT-based) (Cortex, raclopride): 0.10 ± 0.02
2TCM BPND change relative to control (Cortex, raclopride): −27%
Logan BPND (Cortex, raclopride): 0.09±0.03
Logan BPND change relative to control (Cortex, raclopride): -32%
SRTM BPND (Cortex, raclopride): 0.08 ± 0.02
SRTM BPND change relative to control (Cortex, raclopride): −24%
2TCM BPND (VT-based) [1]: 0.10±0.02
2TCM BPND change relative to control [1]: -27%
SRTM BPND [1]: 0.08±0.02
SRTM BPND change relative to control [1]: –24%
1TCM BPND (Hippocampus, control): 0.35±0.11
2TCM BPND (VT-based) (Hippocampus, control): 0.30 ± 0.07
Logan BPND (Hippocampus, control): 0.28±0.04
SRTM BPND (Hippocampus, control): 0.26 ± 0.04
1TCM K1 (Hippocampus, control rat A): 0.41 ± 0.02 mL/g/min
1TCM k2 (Hippocampus, control rat A): 0.06 ± 0.01 min⁻¹
2TCM K1 (Hippocampus, control rat A): 2.21 ± 1.25 mL/g/min
2TCM k2 (Hippocampus, control rat A): 8.56 ± 3.62 min⁻¹
2TCM k3 (Hippocampus, control rat A): 1.60 ± 2.24 min⁻¹
2TCM k4 (Hippocampus, control rat A): 0.05 ± 8.88 min⁻¹
1TCM K1 (Hippocampus, control rat B): 0.51 ± 0.02 mL/g/min
1TCM k2 (Hippocampus, control rat B): 0.08 ± 0.01 min⁻¹
2TCM K1 (Hippocampus, control rat B): 0.71 ± 0.07 mL/g/min
2TCM k2 (Hippocampus, control rat B): 0.50 ± 0.23 min⁻¹
2TCM k3 (Hippocampus, control rat B): 0.50 ± 0.27 min⁻¹
2TCM k4 (Hippocampus, control rat B): 0.14 ± 0.03 min⁻¹
1TCM K1 (Hippocampus, control rat C): 0.46 ± 0.01 mL/g/min
1TCM k2 (Hippocampus, control rat C): 0.08 ± 0.004 min⁻¹
2TCM K1 (Hippocampus, control rat C): 0.60 ± 0.12 mL/g/min
2TCM k2 (Hippocampus, control rat C): 0.57 ± 0.77 min⁻¹
2TCM k3 (Hippocampus, control rat C): 1.17 ± 1.34 min⁻¹
2TCM k4 (Hippocampus, control rat C): 0.24 ± 0.09 min⁻¹
1TCM K1 (Hippocampus, control rat D): 0.48 ± 0.02 mL/g/min
1TCM k2 (Hippocampus, control rat D): 0.08 ± 0.01 min⁻¹
2TCM K1 (Hippocampus, control rat D): 101 ± 14615 mL/g/min
2TCM k2 (Hippocampus, control rat D): 1246 ± 181990 min⁻¹
2TCM k3 (Hippocampus, control rat D): 5.49 ± 4.23 min⁻¹
2TCM k4 (Hippocampus, control rat D): 0.07 ± 0.05 min⁻¹
1TCM BPND (Hippocampus, raclopride): 0.33±0.09
1TCM BPND change relative to control (Hippocampus, raclopride): -8%
2TCM BPND (VT-based) (Hippocampus, raclopride): 0.26 ± 0.06
2TCM BPND change relative to control (Hippocampus, raclopride): −13%
Logan BPND (Hippocampus, raclopride): 0.25±0.05
Logan BPND change relative to control (Hippocampus, raclopride): -10%
SRTM BPND (Hippocampus, raclopride): 0.23 ± 0.05
SRTM BPND change relative to control (Hippocampus, raclopride): −13%
2TCM BPND (VT-based) [2]: 0.26±0.06
2TCM BPND change relative to control [2]: -13%
SRTM BPND [2]: 0.23±0.05
SRTM BPND change relative to control [2]: –13%
1TCM BPND (Hypothalamus, control): 0.25±0.04
2TCM BPND (VT-based) (Hypothalamus, control): 0.22 ± 0.03
Logan BPND (Hypothalamus, control): 0.21±0.04
SRTM BPND (Hypothalamus, control): 0.21 ± 0.03
1TCM K1 (Hypothalamus, control rat A): 0.40 ± 0.03 mL/g/min
1TCM k2 (Hypothalamus, control rat A): 0.06 ± 0.01 min⁻¹
2TCM K1 [3]: 273 mL/g/min
2TCM k2 [3]: 1355 min⁻¹
2TCM k3 [3]: 1.65 min⁻¹
2TCM k4 [3]: 0.05 min⁻¹
1TCM K1 (Hypothalamus, control rat B): 0.53 ± 0.03 mL/g/min
1TCM k2 (Hypothalamus, control rat B): 0.09 ± 0.01 min⁻¹
2TCM K1 (Hypothalamus, control rat B): 1.17 ± 0.88 mL/g/min
2TCM k2 (Hypothalamus, control rat B): 3.45 ± 1.30 min⁻¹
2TCM k3 (Hypothalamus, control rat B): 2.22 ± 6.73 min⁻¹
2TCM k4 (Hypothalamus, control rat B): 0.13 ± 14.19 min⁻¹
1TCM K1 (Hypothalamus, control rat C): 0.50 ± 0.02 mL/g/min
1TCM k2 (Hypothalamus, control rat C): 0.08 ± 0.01 min⁻¹
2TCM K1 (Hypothalamus, control rat C): 0.64 ± 0.24 mL/g/min
2TCM k2 (Hypothalamus, control rat C): 0.63 ± 1.60 min⁻¹
2TCM k3 (Hypothalamus, control rat C): 1.37 ± 2.85 min⁻¹
2TCM k4 (Hypothalamus, control rat C): 0.27 ± 0.20 min⁻¹
1TCM K1 (Hypothalamus, control rat D): 0.59 ± 0.04 mL/g/min
1TCM k2 (Hypothalamus, control rat D): 0.12 ± 0.02 min⁻¹
2TCM K1 (Hypothalamus, control rat D): 680 ± 116990 mL/g/min
2TCM k2 (Hypothalamus, control rat D): 3105 ± 534810 min⁻¹
2TCM k3 (Hypothalamus, control rat D): 2.16 ± 0.48 min⁻¹
